# Measurements as given in patent publication US8008331B2, “Benzothiazol-2-one derivatives as lipase and phospholipase inhibitors” (Sanofi-Aventis, priority 2005, dated 2011).
# Molecular target: T1, endothelial lipase (EL) (Homo sapiens, UniProt Q9Y5X9)
# T1 construct: made in house; host or cells: recombinant cell lines (CHO, HEK293); concentrated conditioned medium
# T1 sequence (Q9Y5X9 21-500): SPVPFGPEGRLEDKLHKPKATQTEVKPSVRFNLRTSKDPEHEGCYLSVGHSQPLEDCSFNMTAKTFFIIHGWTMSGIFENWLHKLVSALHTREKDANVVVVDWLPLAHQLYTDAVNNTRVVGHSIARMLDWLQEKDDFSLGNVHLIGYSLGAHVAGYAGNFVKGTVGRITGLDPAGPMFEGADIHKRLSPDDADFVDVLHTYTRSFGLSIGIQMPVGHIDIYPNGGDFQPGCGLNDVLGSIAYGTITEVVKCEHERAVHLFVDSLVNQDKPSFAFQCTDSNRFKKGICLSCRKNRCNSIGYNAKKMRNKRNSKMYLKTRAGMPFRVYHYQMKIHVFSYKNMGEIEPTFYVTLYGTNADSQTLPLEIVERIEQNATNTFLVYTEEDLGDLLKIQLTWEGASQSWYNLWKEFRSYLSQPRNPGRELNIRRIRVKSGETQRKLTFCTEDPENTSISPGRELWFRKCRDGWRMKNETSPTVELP
# Assay: Further EL inhibition assay
# Type: biochemical
# Conditions: phospholipase substrate (Bodipy-labelled phosphocholine), 37° C., 90 minutes, EL from conditioned medium of recombinant cell lines (CHO, HEK293)
# Source text: EL is released as secretory protein in high concentration into cell culture medium (conditioned medium) by recombinant cell lines (CHO, HEK293). This is employed as enzyme solution after concentration.
# The enzymatic activity is reduced as a function of the inhibitor concentration used, and the inhibitor concentration at which a half-maximum enzymatic activity is observed is called IC50.
# The phospholipase-specific substrate 1,2-bis(4,4-difluoro-5,7-dimethyl-4-bora-3a,4a-diaza-s-indacene-3-undecanoyl)-sn-glycero-3-phosphocholine, (manufacturer Molecular Probes) is used to characterize the enzymatic activity of endothelial lipase and the effect of inhibitors. Hydrolysis of the A1 ester linkage of this phospholipid by the enzyme liberates the fluorescent dye Bodipy which can be detected after separation by thin-layer chromatography on an HPTLC plate (silica gel 60, Merck) or directly in the reaction vessel by measuring the fluorescence.
# The substrate solution is prepared by dissolving 100 μg of 1,2-bis(4,4-difluoro-5,7-dimethyl-4-bora-3a,4a-diaza-s-indacene-3-undecanoyl)-sn-glycero-3-phosphocholine (manufacturer Molecular Probes) in 100 μl of DMSO and taking up in 2.4 mg of tripalmitin (Sigma) in 393 μl of chloroform which comprises 20 mg/ml DOP-choline (1,2-dioleoyl-sn-glycero-3-phosphocholine). 39.3 μl of this lipid mixture are transferred into a fresh reaction vessel, and the solvent is evaporated off. The lipid mixture is dissolved in 4 ml of 200 mM TRIS-HCl, 150 mM sodium chloride, pH=7.4, by sonication twice. The subsequent enzymic reaction takes place at 37° C. for 90 minutes. For this purpose, 20 μl of the substrate solution are incubated with 2 μl of inhibitor of appropriate concentration (dissolved in 10% DMSO, using 10% strength DMSO solution for control) and 2 μl of enzyme solution (conditioned medium). The 4 μl of the assay mixture are loaded onto an HPTLC plate (silica gel 60, Merck), and the liberated fluorescent dye is separated for detection with an eluent (diethyl ether:petroleum benzine:acetic acid [78:22:1]). After evaporation of the eluent, the plate is read in a fluorescence scanner. An increased liberation of the fluorescent dye in the uninhibited reaction is to be observed as a measure of the enzymic activity.
row,Compound,IC50
1,"CCCCCCNC(=O)n1c(=O)sc2ccccc21 [Example 1, 2-Oxobenzothiazole-3-hexylcarboxamide]",0.16 µM
2,"CCCCCCCNC(=O)n1c(=O)sc2ccc(Cl)cc21 [Example 6, 5-Chloro-2-oxobenzothiazole-3-heptylcarboxamide]",0.014 µM
3,"CCCCCCCNC(=O)n1c(=O)sc2ccccc21 [Example 2, 2-Oxobenzothiazole-3-heptylcarboxamide]",0.051 µM
4,"Cc1ccccc1CNC(=O)n1c(=O)sc2ccccc21 [Example 3, 2-Oxobenzothiazole-3-(2-methylbenzyl)carboxamide]",0.052 µM

# The next lines start with the values.
row,IC50,Compound
1,0.215 µM,"Cc1cccc(CNC(=O)n2c(=O)sc3ccccc32)c1 [Example 4, 2-Oxobenzothiazole-3-(3-methylbenzyl)carboxamide]"
2,0.435 µM,"CCCCCCNC(=O)n1c(=O)sc2cc(Br)ccc21 [Example 5, 6-Bromo-2-oxobenzothiazole-3-hexylcarboxamide]"
3,0.12 µM,"CCCCCCNC(=O)n1c(=O)sc2ccc(C(F)(F)F)cc21 [Example 7, 2-Oxo-5-trifluoromethylbenzothiazole-3-hexylcarboxamide]"
